# Data from US6866833B1, “Substituted thiourea complexing agent and a method for extracting a noble metal from a matrix using the complexing agent” (University College Cork, priority 1999, dated 2005).
# Tests used:
# [1] = Supercritical fluid extraction of Au(III) as AuCl4^− from filter paper, gold determined by atomic absorption spectroscopy; settings: observed after Au(III) SFE runs, 20 mg ligand
# Experimental: Gold Au(III) extraction by the ligand of the comparative Example (a) was investigated employing a BDH Gold (III) standard containing 1000 ppm Au(III) (aqueous AuCl4^−). Thus 60 μl of solution Au(III) containing 3.05×10^−7 moles Au(III) was applied to a 3 cm diameter filter paper. The filter paper was allowed to dry and then placed in a glass tube (2 cm×0.5 cm i.d.), plugged with glass wool at both ends. 20 mg of ligand of the comparative Example (a) (in excess of over 200 fold over Au(III) level) was then placed in the same glass tube and plugged with glass wool.
# The extraction vessel was statically extracted for 20 minutes and then dynamically extracted into a collecting solvent of 4 ml methanol for 15 minutes (0.8 ml CO2/minute flow rate). The methanol solution was then made up to 10 ml using additional methanol. Levels of gold in solution were then determined by atomic absorption spectroscopy. The procedure was carried out at different pressures from 200-400 atm. The following extraction percentages were obtained:
# The procedure in Example 5(a) was repeated except the temperature of the extraction procedure was varied from 60-120° C., while maintaining the pressure of the extractor at 400 atm. The following results were obtained:
# The procedure in Example 6 was repeated with the ligand from Example 1 being used in place of the ligand of the Comparative Example (a). The following % extraction values were obtained at differing pressures for extraction of Au(III):
# The procedure of Example 7 was repeated employing the ligand of Example 2 in place of the ligand of Example 1 and utilising 50 μl Au(III) standard solution in place of 60 μl to give the following % extraction results at differing pressures of SF—CO2 at 60° C.
# [2] = Solubility of the ligand in supercritical CO2 (weight loss of glass tube after static SFE); assay type: physicochemical; settings: 60° C.; for Solubility in SF—CO2: approx. 60 mg ligand, 2.2 ml 100% SF—CO2, static 30 minutes, 200 and 300 atmospheres
# Experimental: The solubility of the ligand of the comparative Examples (a)-(c) in supercritical CO2 was compared with the solubilities of the ligands of Examples 1 and 2 and 3 in supercritical CO2.
# In each case, a weighed amount of the ligand of the respective comparative Example of approximately 60 mg was placed in a glass tube (2 cm×0.5 cm i.d.) and plugged with glass wool at both ends. The glass tube was placed inside the extraction vessel and statically extracted for 30 minutes. The inlet valve for SF—CO2 was then closed and the outlet valve opened into a collecting solution. The loss of weight of the glass tube after SFE corresponded to the solubility of the ligand in 2.2 ml 100% SF—CO2. The procedure was carried out at 60° C. and two different pressures namely 200 and 300 atmospheres.
SMILES,Solubility in SF—CO2 (ligand remaining in glass tube after extraction runs) [1],Solubility in SF—CO2 [2],"solubility at 30 min ([2]; supercritical CO2, organic solvent or mixture, thermodynamic from solid, larger amounts of ligand, both pressures (200 and 300 atmospheres), read-out: Solubility in SF—CO2)"
FC(F)(F)c1cc(NC(=S)NCC(F)(F)C(F)(F)C(F)(F)F)cc(C(F)(F)F)c1 [Example 1],,excellent solubility,
FC(F)(F)CNC(=S)Nc1cc(C(F)(F)F)cc(C(F)(F)F)c1 [Example 2],,excellent solubility,
FC(F)(F)c1cc(NC(=S)NCC(F)(F)C(F)(F)C(F)(F)C(F)(F)C(F)(F)C(F)(F)C(F)(F)F)cc(C(F)(F)F)c1 [Example 3(a)],,excellent solubility,
"CNC(=S)NCC(F)(F)C(F)(F)C(F)(F)F [Example 3(b), N-methyl, N′-heptafluorobutyl thiourea]",,excellent solubility,> 700 mM

# Now from value to molecule, other results behind:
Solubility in SF—CO2 (ligand remaining in glass tube after extraction runs) [1],SMILES,Solubility in SF—CO2 [2],"solubility at 30 min ([2]; supercritical CO2, organic solvent or mixture, thermodynamic from solid, larger amounts of ligand, both pressures (200 and 300 atmospheres), read-out: Solubility in SF—CO2)"
poor solubility,NC(=S)Nc1cc(C(F)(F)F)cc(C(F)(F)F)c1 [Comparative Example (a)],,
poor solubility,"CCCCCCCCNC(=S)NC [Comparative Example (b), N-methyl,N′-octyl thiourea]",,
poor solubility,"CCCCCCCCCCCCNC(=S)NC [Comparative Example (c), N-methyl, N′-dodecyl thiourea]",,
